Results published in patent publication US11053204B2, “Pyrimidinyloxy benzene derivatives as herbicides” (FMC Corporation, priority 2015, dated 2021).

Tests used:
Type in all cases: in vivo
[1] = test system: surinam grass (Brachiaria decumbens); assay: Test C preemergence, plant response rating
soybean (Glycine max) = assay: Test C postemergence, plant response rating; settings: for Soybean plant response rating: scale 0 to 100 (0 no effect, 100 complete control)
Outline: (§1)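 Greenhouse plants rated visually against untreated controls 13–15 d after treatment, scale 0 = no effect to 100 = complete control. Postemergence sprays went onto potted plants 2–18 cm tall (1–4 leaves); preemergence sprays onto soil freshly sown in loam–sand or silt loam, chemicals formulated in non-phytotoxic solvent with surfactant.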

[2] = test system: foxtail, giant (giant foxtail, Setaria faberii); assay: Test C postemergence, plant response rating; settings: for Foxtail, Giant plant response rating: scale 0 to 100 (0 no effect, 100 complete control)
Outline: as §1

[3] = test system: galium (catchweed bedstraw, Galium aparine); assay: Test C postemergence, plant response rating; settings: for Galium plant response rating: scale 0 to 100 (0 no effect, 100 complete control)
Outline: as §1

[4] = test system: chickweed (common chickweed, Stellaria media); assay: Test C postemergence, plant response rating; settings: for Chickweed plant response rating: scale 0 to 100 (0 no effect, 100 complete control)
Outline: as §1

[5] = test system: ragweed (common ragweed, Ambrosia elatior); assay: Test C postemergence, plant response rating; settings: for Ragweed plant response rating: scale 0 to 100 (0 no effect, 100 complete control)
Outline: as §1

kochia (Kochia scoparia) = assay: Test C postemergence, plant response rating; settings: for Kochia plant response rating: scale 0 to 100 (0 no effect, 100 complete control)
Outline: as §1

[6] = test system: blackgrass (Alopecurus myosuroides); assay: Test C postemergence, plant response rating; settings: for Plant response rating, Blackgrass: scale 0 to 100; for Blackgrass plant response rating: scale 0 to 100 (0 no effect, 100 complete control)
Outline: as §1

[7] = test system: waterhemp (common waterhemp, Amaranthus rudis); assay: Test C postemergence, plant response rating
Outline: as §1

[8] = test system: oat, wild (wild oat Avena fatua); assay: Test C postemergence, plant response rating; settings: for Oat, Wild plant response rating: scale 0 to 100 (0 no effect, 100 complete control)
Outline: as §1

[9] = test system: nutsedge, yellow (yellow nutsedge, Cyperus esculentus); assay: Test C postemergence, plant response rating; settings: for Nutsedge, Yellow plant response rating: scale 0 to 100 (0 no effect, 100 complete control)
Outline: as §1

[10] = test system: lambsquarters (Chenopodium album); assay: Test C postemergence, plant response rating; settings: for Lambsquarters plant response rating: scale 0 to 100 (0 no effect, 100 complete control)
Outline: as §1

[11] = test system: velvetleaf (Abutilon theophrasti); assay: Test C postemergence, plant response rating
Outline: as §1

[12] = test system: morningglory (Ipomoea coccinea); assay: Test C postemergence, plant response rating; settings: for Morningglory plant response rating: scale 0 to 100 (0 no effect, 100 complete control)
Outline: as §1

[13] = test system: wheat (winter wheat, Triticum aestivum); assay: Test C postemergence, plant response rating
Outline: as §1

corn (Zea mays) = assay: Test C postemergence, plant response rating; settings: for Corn plant response rating: scale 0 to 100 (0 no effect, 100 complete control)
Outline: as §1

[14] = test system: oilseed rape (Brassica napus); assay: Test C postemergence, plant response rating; settings: for Oilseed Rape plant response rating: scale 0 to 100 (0 no effect, 100 complete control)
Outline: as §1

[15] = test system: wild poinsettia (Euphorbia heterophylla); assay: Test C preemergence, plant response rating
[16] = test system: windgrass (Apera spica-venti); assay: Test C preemergence, plant response rating
[17] = test system: oat, wild (wild oat Avena fatua); assay: Test C preemergence, plant response rating
[18] = test system: pigweed, palmer (palmer pigweed, Amaranthus palmeri); assay: Test C preemergence, plant response rating
[19] = 125 g ai/ha, scale 0 to 100 (0 no effect, 100 complete control)

O=C(CCCCC(F)(F)F)c1c(Br)cccc1Oc1ncc(Cl)cn1 [Compound 82]
Plant response rating, Surinam Grass ([1]; 31 g ai/ha, scale 0 to 100): 10
Plant response rating, Surinam Grass ([1]; 62 g ai/ha, scale 0 to 100): 25
Plant response rating, Surinam Grass ([1]; 125 g ai/ha, scale of 0 to 100): 35
Plant response rating, Soybean (soybean (Glycine max); 16 g ai/ha, scale of 0 to 100): 25
Plant response rating, Soybean (soybean (Glycine max); 31 g ai/ha, scale 0 to 100): 60
Soybean plant response rating (soybean (Glycine max); 62 g ai/ha): 35
Soybean plant response rating (soybean (Glycine max); 125 g ai/ha): 40
Plant response rating, Foxtail, Giant ([2]; 16 g ai/ha, scale of 0 to 100): 10
Plant response rating, Foxtail, Giant ([2]; 31 g ai/ha, scale 0 to 100): 10
Foxtail, Giant plant response rating ([2]; 62 g ai/ha): 10
Foxtail, Giant plant response rating ([2]; 125 g ai/ha): 20
Plant response rating, Galium ([3]; 16 g ai/ha, scale of 0 to 100): 50
Plant response rating, Galium ([3]; 31 g ai/ha, scale 0 to 100): 75
Galium plant response rating ([3]; 62 g ai/ha): 85
Galium plant response rating ([3]; 125 g ai/ha): 90
Plant response rating, Chickweed ([4]; 16 g ai/ha, scale of 0 to 100): 55
Plant response rating, Chickweed ([4]; 31 g ai/ha, scale 0 to 100): 85
Chickweed plant response rating ([4]; 62 g ai/ha): 90
Chickweed plant response rating ([4]; 125 g ai/ha): 90
Plant response rating, Ragweed ([5]; 16 g ai/ha, scale of 0 to 100): 40
Plant response rating, Ragweed ([5]; 31 g ai/ha, scale 0 to 100): 35
Ragweed plant response rating ([5]; 62 g ai/ha): 60
Ragweed plant response rating ([5]; 125 g ai/ha): 55
Plant response rating, Kochia (kochia (Kochia scoparia); 16 g ai/ha, scale of 0 to 100): 80
Plant response rating, Kochia (kochia (Kochia scoparia); 31 g ai/ha, scale 0 to 100): 95
Kochia plant response rating (kochia (Kochia scoparia); 62 g ai/ha): 95
Kochia plant response rating (kochia (Kochia scoparia); 125 g ai/ha): 95
Plant response rating, Blackgrass ([6]; 16 g ai/ha): 30
Plant response rating, Blackgrass ([6]; 31 g ai/ha): 35
Blackgrass plant response rating ([6]; 62 g ai/ha): 40
Blackgrass plant response rating ([6]; 125 g ai/ha): 45
Plant response rating, Waterhemp ([7]; 16 g ai/ha, scale of 0 to 100): 65
Plant response rating, Waterhemp ([7]; 31 g ai/ha, scale 0 to 100): 95
Waterhemp plant response rating [7, 19]: 95
Plant response rating, Oat, Wild ([8]; 16 g ai/ha, scale of 0 to 100): 25
Plant response rating, Oat, Wild ([8]; 31 g ai/ha, scale 0 to 100): 40
Oat, Wild plant response rating ([8]; 62 g ai/ha): 40
Oat, Wild plant response rating ([8]; 125 g ai/ha): 50
Plant response rating, Nutsedge, Yellow ([9]; 16 g ai/ha, scale of 0 to 100): 10
Plant response rating, Nutsedge, Yellow ([9]; 31 g ai/ha, scale 0 to 100): 10
Nutsedge, Yellow plant response rating ([9]; 62 g ai/ha): 20
Nutsedge, Yellow plant response rating ([9]; 125 g ai/ha): 10
Plant response rating, Lambsquarters ([10]; 16 g ai/ha, scale of 0 to 100): 70
Plant response rating, Lambsquarters ([10]; 31 g ai/ha, scale 0 to 100): 75
Lambsquarters plant response rating ([10]; 62 g ai/ha): 85
Lambsquarters plant response rating ([10]; 125 g ai/ha): 90
Plant response rating, Velvetleaf ([11]; 16 g ai/ha, scale of 0 to 100): 35
Plant response rating, Velvetleaf ([11]; 31 g ai/ha, scale 0 to 100): 45
Velvetleaf plant response rating [11, 19]: 75
Plant response rating, Morningglory ([12]; 16 g ai/ha, scale of 0 to 100): 25
Plant response rating, Morningglory ([12]; 31 g ai/ha, scale 0 to 100): 40
Morningglory plant response rating ([12]; 62 g ai/ha): 30
Morningglory plant response rating ([12]; 125 g ai/ha): 75
Plant response rating, Wheat ([13]; 16 g ai/ha, scale of 0 to 100): 5
Plant response rating, Wheat ([13]; 31 g ai/ha, scale 0 to 100): 10
Wheat plant response rating [13, 19]: 30
Plant response rating, Corn (corn (Zea mays); 16 g ai/ha, scale of 0 to 100): 20
Plant response rating, Corn (corn (Zea mays); 31 g ai/ha, scale 0 to 100): 20
Corn plant response rating (corn (Zea mays); 62 g ai/ha): 25
Corn plant response rating (corn (Zea mays); 125 g ai/ha): 25
Plant response rating, Oilseed Rape ([14]; 16 g ai/ha, scale of 0 to 100): 70
Plant response rating, Oilseed Rape ([14]; 31 g ai/ha, scale 0 to 100): 95
Oilseed Rape plant response rating ([14]; 62 g ai/ha): 95
Oilseed Rape plant response rating ([14]; 125 g ai/ha): 95
Plant response rating, Poinsettia, Wild ([15]; 31 g ai/ha, scale 0 to 100): 0
Plant response rating, Poinsettia, Wild ([15]; 62 g ai/ha, scale 0 to 100): 0
Plant response rating, Poinsettia, Wild ([15]; 125 g ai/ha, scale of 0 to 100): 20
Plant response rating, Windgrass ([16]; 31 g ai/ha, scale 0 to 100): 30
Plant response rating, Windgrass ([16]; 62 g ai/ha, scale 0 to 100): 80
Plant response rating, Windgrass ([16]; 125 g ai/ha, scale of 0 to 100): 90
Plant response rating, Oat, Wild ([17]; 31 g ai/ha, scale 0 to 100): 0
Plant response rating, Oat, Wild ([17]; 62 g ai/ha, scale 0 to 100): 5
Plant response rating, Oat, Wild ([17]; 125 g ai/ha, scale of 0 to 100): 5
Plant response rating, Pigweed, Palmer ([18]; 31 g ai/ha, scale 0 to 100): 85
Plant response rating, Pigweed, Palmer ([18]; 62 g ai/ha, scale 0 to 100): 100
Plant response rating, Pigweed, Palmer ([18]; 125 g ai/ha, scale of 0 to 100): 100
